# Like-named read-outs stand apart in the source and are kept apart here.
# Test system: fecal microbiota
# Conditions: for Fold change (week 11/week 0) in relative species abundance: fecal samples, 11 weeks consumption
# Protocol: Illumina sequence reads were mapped to the human microbiome reference genome database of the Human Microbiome Project [www(dot)hmpdacc(dot)org/HMREFG/^32], and to a gut microbial gene catalogue^33 using GEM mapper^58 with the following parameters: • -m 3 -s 0 -q offset-33 -gem-quality-threshold 26
# Microbial species abundance was measured as the fraction of reads that mapped to a single species in the database. An EM algorithm adapted from Pathoscope^59 was employed to determine the correct assignment of reads that mapped to more than one species. We considered only species for which at least 10% of the genome was covered (each coverage bin was 10,000-bp long) in at least one of the growth conditions (saccharin, water, or glucose). Reads mapped to the gut microbial gene catalogue were assigned a KEGG^34,35 ID according to the mapping available with the catalogue. Genes were subsequently mapped to KEGG pathways, and only pathways whose gene coverage was above 0.2 were included.
structure (smiles),measurement,setting,value
O=C1NS(=O)(=O)c2ccccc21 [saccharin],changes in microbial relative species abundance,"11 weeks commercial saccharin vs glucose or water, F-test p<10^−10",largest changes
same,Fold change (week 11/week 0) in relative species abundance,"Symbol BACT_9, Number 996",0.65
same,Fold change (week 11/week 0) in relative species abundance,"Symbol BACT_22, Number 639",0.36
same,Fold change (week 11/week 0) in relative species abundance,"Symbol BACT_38, Number 780",0.50
same,Fold change (week 11/week 0) in relative species abundance,"Symbol BACT_49, Number 420",0.02
same,Fold change (week 11/week 0) in relative species abundance,"Symbol BACT_60, Number 752",0.71
same,Fold change (week 11/week 0) in relative species abundance,"Symbol BACT_65, Number 918",6.73
same,Fold change (week 11/week 0) in relative species abundance,"Symbol BACT_70, Number 863",9.41
same,Fold change (week 11/week 0) in relative species abundance,"Symbol BACT_85, Number 934",0.45
same,Fold change (week 11/week 0) in relative species abundance,"Symbol BACT_142, Number 843",0.42
same,Fold change (week 11/week 0) in relative species abundance,"Symbol BACT_170, Number 883",0.48
same,Fold change (week 11/week 0) in relative species abundance,"Symbol BACT_171, Number 748",0.56
same,Fold change (week 11/week 0) in relative species abundance,"Symbol BACT_172, Number 768",1.03
same,Fold change (week 11/week 0) in relative species abundance,"Symbol BACT_178, Number 921",0.28
same,Fold change (week 11/week 0) in relative species abundance,"Symbol BACT_181, Number 767",0.40
same,Fold change (week 11/week 0) in relative species abundance,"Symbol BACT_185, Number 633",8.79
same,Fold change (week 11/week 0) in relative species abundance,"Symbol BACT_189, Number 636",1.92
same,Fold change (week 11/week 0) in relative species abundance,"Symbol BACT_192, Number 995",0.36
same,Fold change (week 11/week 0) in relative species abundance,"Symbol BACT_194, Number 846",0.51
same,Fold change (week 11/week 0) in relative species abundance,"Symbol BACT_195, Number 523",0.40
same,Fold change (week 11/week 0) in relative species abundance,"Symbol BACT_196, Number 395",12.66
same,Fold change (week 11/week 0) in relative species abundance,"Symbol BACT_225, Number 953",0.44
same,Fold change (week 11/week 0) in relative species abundance,"Symbol BACT_258, Number 620",0.55
same,Fold change (week 11/week 0) in relative species abundance,"Symbol BACT_260, Number 1443",0.55
same,Fold change (week 11/week 0) in relative species abundance,"Symbol BACT_300, Number 769",0.50
same,Fold change (week 11/week 0) in relative species abundance,"Symbol BACT_371, Number 960",2.13
same,Fold change (week 11/week 0) in relative species abundance,"Symbol BACT_374, Number 805",0.34
same,Fold change (week 11/week 0) in relative species abundance,"Symbol BACT_392, Number 915",0.66
same,Fold change (week 11/week 0) in relative species abundance,"Symbol BACT_393, Number 932",0.53
same,Fold change (week 11/week 0) in relative species abundance,"Symbol BACT_397, Number 914",0.45
same,Fold change (week 11/week 0) in relative species abundance,"Symbol BACT_409, Number 845",9.91
same,Fold change (week 11/week 0) in relative species abundance,"Symbol BACT_413, Number 847",1.25
same,Fold change (week 11/week 0) in relative species abundance,"Symbol BACT_418, Number 749",0.22
same,Fold change (week 11/week 0) in relative species abundance,"Symbol BACT_419, Number 920",0.15
same,Fold change (week 11/week 0) in relative species abundance,"Symbol BACT_420, Number 922",0.33
same,Fold change (week 11/week 0) in relative species abundance,"Symbol BACT_424, Number 906",0.29
same,Fold change (week 11/week 0) in relative species abundance,"Symbol BACT_449, Number 772",2.90
same,Fold change (week 11/week 0) in relative species abundance,"Symbol BACT_463, Number 719",0.00
same,Fold change (week 11/week 0) in relative species abundance,"Symbol BACT_496, Number 765",2.97
same,Fold change (week 11/week 0) in relative species abundance,"Symbol BACT_499, Number 35",0.24
same,Fold change (week 11/week 0) in relative species abundance,"Symbol BACT_511, Number 591",3.71
same,Fold change (week 11/week 0) in relative species abundance,"Symbol BACT_535, Number 940",0.14
same,Fold change (week 11/week 0) in relative species abundance,"Symbol BACT_539, Number 117",0.22
same,Fold change (week 11/week 0) in relative species abundance,"Symbol BACT_551, Number 907",0.62
same,Fold change (week 11/week 0) in relative species abundance,"Symbol BACT_572, Number 963",0.70
same,Fold change (week 11/week 0) in relative species abundance,"Symbol BACT_586, Number 849",0.70
same,Fold change (week 11/week 0) in relative species abundance,"Symbol BACT_627, Number 886",0.16
same,Fold change (week 11/week 0) in relative species abundance,"Symbol BACT_632, Number 871",3.17
same,Fold change (week 11/week 0) in relative species abundance,"Symbol BACT_681, Number 125",0.00
same,Fold change (week 11/week 0) in relative species abundance,"Symbol BACT_686, Number 1007",0.00
same,Fold change (week 11/week 0) in relative species abundance,"Symbol BACT_722, Number 377",1.88
same,Fold change (week 11/week 0) in relative species abundance,"Symbol BACT_769, Number 610",3.38
same,Fold change (week 11/week 0) in relative species abundance,"Symbol BACT_843, Number 1318",0.16
same,Fold change (week 11/week 0) in relative species abundance,"Symbol BACT_850, Number 394",2.51
same,Fold change (week 11/week 0) in relative species abundance,"Symbol BACT_852, Number 766",0.77
same,Fold change (week 11/week 0) in relative species abundance,"Symbol BACT_855, Number 835",0.34
same,Fold change (week 11/week 0) in relative species abundance,"Symbol BACT_890, Number 163",0.15
same,Fold change (week 11/week 0) in relative species abundance,"Symbol BACT_913, Number 904",1.10
same,Fold change (week 11/week 0) in relative species abundance,"Symbol BACT_915, Number 1315",10.39
same,Fold change (week 11/week 0) in relative species abundance,"Symbol BACT_931, Number 1088",0.53
same,Fold change (week 11/week 0) in relative species abundance,"Symbol BACT_1001, Number 933",0.75
same,Fold change (week 11/week 0) in relative species abundance,"Symbol BACT_1025, Number 751",0.53
same,Fold change (week 11/week 0) in relative species abundance,"Symbol BACT_1043, Number 948",1.08
same,Fold change (week 11/week 0) in relative species abundance,"Symbol BACT_1083, Number 1008",0.00
same,Fold change (week 11/week 0) in relative species abundance,"Symbol BACT_1131, Number 942",0.34
same,Fold change (week 11/week 0) in relative species abundance,"Symbol BACT_1311, Number 1259",0.34
same,Fold change (week 11/week 0) in relative species abundance,"Symbol BACT_1314, Number 1399",0.67
same,Fold change (week 11/week 0) in relative species abundance,"Symbol BACT_1315, Number 1395",0.46
same,Fold change (week 11/week 0) in relative species abundance,"Symbol BACT_1321, Number 1255",3.20
same,Fold change (week 11/week 0) in relative species abundance,"Symbol BACT_1322, Number 1396",0.91
same,Fold change (week 11/week 0) in relative species abundance,"Symbol BACT_1324, Number 1264",12.01
same,Fold change (week 11/week 0) in relative species abundance,"Symbol BACT_1348, Number 1311",9.24
same,Fold change (week 11/week 0) in relative species abundance,"Symbol BACT_1378, Number 1375",141.18
same,Fold change (week 11/week 0) in relative species abundance,"Symbol BACT_1427, Number 1266",0.00
same,Fold change (week 11/week 0) in relative species abundance,"Symbol BACT_1442, Number 1400",2.16
same,Fold change (week 11/week 0) in relative species abundance,"Symbol BACT_1457, Number 1337",0.23
same,Fold change (week 11/week 0) in relative species abundance,"Symbol BACT_1496, Number 1321",2.65
same,Fold change (week 11/week 0) in relative species abundance,"Symbol BACT_1501, Number 1331",0.17
same,Fold change (week 11/week 0) in relative species abundance,"Symbol BACT_1526, Number 1227",0.07
same,Fold change (week 11/week 0) in relative species abundance,"Symbol BACT_1555, Number 1469",0.21
same,Fold change (week 11/week 0) in relative species abundance,"Symbol BACT_1569, Number 1462",0.30
same,Fold change (week 11/week 0) in relative species abundance,"Symbol BACT_1595, Number 1533",0.00
same,Fold change (week 11/week 0) in relative species abundance,"Symbol BACT_1596, Number 1502",0.12
same,Fold change (week 11/week 0) in relative species abundance,"Symbol BACT_1656, Number 1503",0.12
same,Fold change (week 11/week 0) in relative species abundance,"Symbol BACT_3004, Number 5797",11.92
same,Fold change (week 11/week 0) in relative species abundance,"Symbol BACT_3005, Number 5799",1.01
same,Fold change (week 11/week 0) in relative species abundance,"Symbol BACT_3007, Number 5798",1.89
same,Fold change (week 11/week 0) in relative species abundance,"Symbol BACT_3024, Number 5841",0.02
same,Fold change (week 11/week 0) in relative species abundance,"Symbol BACT_3045, Number 5818",0.01
same,Fold change (week 11/week 0) in relative species abundance,"Symbol BACT_3056, Number 5836",0.00
same,Fold change (week 11/week 0) in relative species abundance,"Symbol BACT_3058, Number 5816",0.11
same,Fold change (week 11/week 0) in relative species abundance,"Symbol BACT_3060, Number 5821",0.00
same,Fold change (week 11/week 0) in relative species abundance,"Symbol BACT_3062, Number 5800",0.99
same,Fold change (week 11/week 0) in relative species abundance,"Symbol BACT_3085, Number 5842",0.03
same,Fold change (week 11/week 0) in relative species abundance,"Symbol BACT_3092, Number 5793",2.71
same,Fold change (week 11/week 0) in relative species abundance,"Symbol BACT_4040, Number 5769",1.16
same,Fold change (week 11/week 0) in relative species abundance,"Symbol BACT_4042, Number 5770",0.04
same,Fold change (week 11/week 0) in relative species abundance,"Symbol EUKY_22, Number 1758",0.45
same,Fold change (week 11/week 0) in relative species abundance,"Symbol EUKY_141, Number 1875",0.53
same,Fold change (week 11/week 0) in relative species abundance,"Symbol EUKY_222, Number 1954",0.49
same,Fold change (week 11/week 0) in relative species abundance,"Symbol V1RL3522, Number 3522",0.02

# Reference: patent US20190022152A1, “MICROBIOME RESPONSE TO AGENTS” (Yeda Research and Development Co., Ltd., priority 2014, published 2019)
